The values below are quoted from earlier work in patent publication US6500833B1, “(+)-Hydroxyrisperidone compositions and methods” (priority 1998, dated 2002).

SMILES strings stand for the structures.

For the data set the following is noted: condition associated with torsades de pointes.

As for `Cc1nc2n(c(=O)c1CCN1CCC(c3noc4cc(F)ccc34)CC1)CCCC2O` (racemic) [hydroxyrisperidone, 9-hydroxyrisperidone], the “prolongation of QT interval” value is “implicated in a prolongation of QT interval”.

In the case of `Cc1nc2n(c(=O)c1CCN1CCC(c3noc4cc(F)ccc34)CC1)CCCC2` [risperidone, Risperidone], the “prolongation of QT interval” value is “implicated in a prolongation of QT interval”.
